According to patent publication US12049475B2, “Bisphosphonate drug conjugates” (BRISE PHARMACEUTICALS CO., LTD., priority 2018, dated 2024):
Entries after “also recorded” stand apart in the source; their conditions may differ.

Key:
bone metastasis = settings: literature; cited from earlier work
[1] = system: TGF-β1 signaling (pSmad2) in HeLa cells; assay: Western blot of pSmad2 in HeLa cells exposed to TGF-β1; type: cell-based, human
Description: (§1) Cell culture: HeLa cells and BMSCs from mice were cultured in Dulbecco's Modified Eagle's Medium (GIBCO) supplemented with 10% fetal bovine serum (FBS; Sigma), 100 units/ml penicillin, 100 μg/ml streptomycin (Sigma), and 2 mM glutamine and were incubated at 37° C. in a humidified chamber supplemented with 5% CO2. […] Cells were then exposed to 5 ng/ml of recombinant human TGF-β1 (R&D Systems) for 30 min and processed for cell staining and Western blotting.
Western blot: HeLa cells were lysed with […] and […] (Roche), and mixed with an equal volume of 2×SDS-PAGE sample buffer with DTT. Samples were boiled and cleared by centrifuge, separated by SDS-PAGE, and transferred onto nitrocellulose (NC) membranes. Membranes were blocked with 5% non-fat dry milk and incubated with primary antibodies at 4° C. overnight. Primary antibodies include rabbit anti-Smad2 antibody (Cell Signaling Technology, 3122, 1:1,000) and rabbit anti-Phospho-Smad2 (Ser465/467) antibody (Cell Signaling Technology, 3108, 1:1,000). HRP-conjugated goat anti-rabbit IgG (Santa Cruz Biotechnology, 2054, 1:5,000) was used as secondary antibody. Signals were detected with Super Signal West Dura Extended Duration Substrate (Thermo Scientific).

[2] = system: TGF-β1 signaling (pSmad2/3) in BMSCs; assay: pSmad2/3 immunofluorescence staining of BMSCs exposed to TGF-β1; type: cell-based, mice; settings: 10 μM for 1 h, 24 h, 48 h, then 5 ng/ml TGF-β1 for 30 min
Description: as §1
Cell staining: BMSCs were washed 3 times with PBS and fixed by 4% paraformaldehyde (PFA) for 30 min. Cells were then washed 3 times with PBS and incubated with 3% BSA, 0.1% Triton in PBS for 1 h. […] Secondary antibodies conjugated with fluorescence were added, and plates were incubated at room temperature for 1 h while avoiding light. Cells were counted under the microscope (Olympus DP71).

wild-type mice = assay: 7-day survival of wild-type mice after conjugate injection; type: in vivo
Description: FIG. 1 presents graphs showing that a conjugate of the present disclosure, Compound 1, delivers a TβR1I specifically to bone and releases it in a time-dependent manner. […] Part (C) presents quantification of the Western-blot band intensity in (B). Data are presented as relative level of p-SMAD2/SMAD2 ratio normalized to DMSO condition. […] Part (E) presents quantification data of pSmad2/3^+ cells in (D). […] Of 6 mice in the 5 mg/kg group, 2 died in 7 days. […] Part (H) presents quantification data of pSmad2/3^+ cells in (G). In FIG. 1, the following conventions are used: NS, not significant. **P<0.01, ****P<0.0001 determined by multifactorial ANOVA. All data are reported as the mean±s.d.

CED mice [3] = assay: CED mouse model, 8-week treatment: μCT of tibia and fracture incidence; settings: for total BV/TV: among all groups; for bone fracture incidence: 100 μg/kg i.p. once a week, 2-month (8-week) treatment
Description: All transgenic animals used in this study are as described in the Animals section. […] During cell counting, microCT analysis and histological staining analysis, all manual quantification is performed in a blind manner to eliminate observer bias. Animals were randomly assigned to groups for experiments in CED animal studies.
(§2) Mice: According to Tang et al., Nat Med. 15:757-765 (2009), a mutation in the coding area of the TGF-β1 latency protein was generated in mice, and the active form of TGF-β1 was secreted by osteoblasts. […] All mice received the intraperitoneal injections once a week for 2 months, beginning at 1 month of age until sacrifice at 3 months of age. The tibias of the mice were collected and analyzed.
Microcomputed tomography analysis: Tibia collected from mice were dissected to remove soft tissue, fixed overnight in 70% ethanol, and analyzed with a high-resolution microcomputed tomography (μCT) imaging system (MicroCT40; Scanco Medical AG, Basserdorf, Switzerland). The scanner was set at a voltage of 55 kVp and a current of 109 μA. The resulting two-dimensional longitude-sectional images or three-dimensional whole-bone images are shown in gray scale. Three-dimensional structural parameters, total bone volume per tissue volume, cortical bone volume, cortical bone thickness, and cortical bone porosity were given.

TGF-β1 signaling pathway = assay: CED mouse model: pSmad2/3 immunohistochemistry of tibia; type: in vivo, mice; settings: 8-week treatment, compared with CED group and ALN group
Description: as §2
(§3) Immunostaining was performed using a standard protocol.
(§4) Immunofluorescence staining was performed using as described. […] Secondary antibodies conjugated with fluorescence were added, and slides were incubated at room temperature for 1 h while avoiding light. Sections were microphotographed to perform histomorphometric measurements (Olympus DP71). The quantitative histomorphometric analysis was conducted in a blinded fashion with OsteoMeasureXP Software (OsteoMetrics, Inc.). The number of positively stained cells in the whole tibia subchondral bone area per specimen was counted in five sequential sections per mouse in each group.

CED mice [4] = assay: CED mouse model: histology and immunofluorescence of tibia (HE, TRAP, Ocn, Osx, Col1, CD31/Emcn, LepR); type: in vivo; settings: for number of Col1+ cells compared with Littermate group / number of Ocn+ cells compared with Littermate group / number of Osx+ cells compared with Littermate group: co-staining with Emcn; for LepR+pSmad2/3+ dual positive BMSC (immunofluorescence): tibia sections
Description: as §2, §3
as §4, with “The number of positively stained cells in the whole tibia subchondral bone area per specimen was counted in five sequential sections per mouse in each group.” left out

CED mice [5] = assay: CED mouse model: flow cytometry of tibia bone marrow cells; type: in vivo; settings: for CD31+Emcn+ double positive cells (FACS of tibia bone marrow): 8-week treatment; for number of LepR+ cells in bone marrow (FACS): distal one-third of tibia, 2 months of treatment
Description: Flow cytometry: Bone marrow cells in the distal one-third of tibia were collected from each group (n=6) after 2 months of conjugate treatment. Red blood cells were lysed in commercial ACK lysis buffer (Quality Biological, Inc., 118-156-101). After centrifugation (1,200 r.p.m. for 5 min at room temperature), cell pellets were resuspended and fixed in 4% PFA. Cells were then washed with 0.1% BSA in PBS and counted. One million cells per milliliter were permeabilized in 0.1% Triton X-100 before blocking in 3% FACS buffer (PBS, 3% FBS, and 0.1% NaN3 sodium azide) for 30 min on ice. Cells were incubated with endomucin antibody (Santa Cruz, sc-65495), Leptin Receptor (R&D, 1:100, AF497), or isotype control antibody for 1 h at 37° C. in a dark room and then washed twice with 0.1% BSA in PBS. After washing, cells were stained with APC-conjugated CD31 antibody (R&D Systems, FAB3628A) for 45 min. Cells were acquired immediately after washing with 3% FACS buffer. Probes were analyzed using a FACS Calibur flow cytometer and CellQuest software (Becton Dickinson).

[6] = system: heart, liver, lung, and kidney; assay: HE and pSmad2/3 staining of heart, liver, kidney and lung; type: in vivo, mice; settings: after conjugate administration
Description: as §3

[7] = system: TGF-β1 signaling in tibias; assay: pSmad2/3 staining of tibias after intraperitoneal injection (bone delivery and release); settings: 100 μg/kg intraperitoneal injection, compared with vehicle control
Description: Histochemistry, immunohistochemistry, and immunofluorescence: At the time of euthanasia, tibias were collected and fixed in 10% buffered formalin for 48 h, decalcified in 10% EDTA (pH 7.4) for 14 d, and then embedded in paraffin. […] Immunostaining was performed using a standard protocol. Sections were incubated with primary antibodies to mouse pSmad2/3 (Santa Cruz Biotechnology Inc., 1:50, sc-11769) and osteocalcin (Takara Bio Inc., 1:200, M137) overnight at 4° C. For immunohistochemical staining, a liquid Diaminobenzidine (DAB)+Chromogen System (Dako, K3468) was used to detect immunoreactivity, followed by counterstaining with hematoxylin and eosin (Sigma-Aldrich, MHS16).
Compound 1 was also tested for tissue distribution following intraperitoneal injection. […] It was then determined whether the conjugate delivered TβR1I (TGF-beta type 1 receptor inhibitor) specifically to bone and hydrolyzed over time (intraperitoneal injection, DMSO, 100 μg/kg of ALN, Inhibitor, or Conjugate).

[8] = pharmaceutical data, cited from earlier work
CED mice [9] = settings: intraperitoneal injection; Nat Med. 15:757-765 (2009); cited from earlier work

c1ccc(-c2nn3c(c2-c2ccnc4cc(OCCN5CCOCC5)ccc24)CCC3)nc1 [LY2109761]
bone metastasis in mice (bone metastasis): reduce a potential of bone metastasis

O=C(NCCCC(O)(P(=O)(O)O)P(=O)(O)O)OCCOc1ccc2c(-c3c(-c4ccccn4)nn4c3CCC4)ccnc2c1 [Compound 1, (1-hydroxy-4-(((2-((4-(2-(pyridin-2-yl)-5,6-dihydro-4H-pyrrolo[1,2-b]pyrazol-3-yl)quinolin-7-yl)oxy)ethoxy)carbonyl)amino)butane-1,1-diyl)bis(phosphonic acid)]
expression level of pSmad2 (Western blot) ([1]; HeLa cells, 10 μM for 1 h, 24 h, 48 h, then 5 ng/ml TGF-β1 for 30 min): significantly reduced | start of TβR1I release in cells (after) ([1]; Western blotting and immunofluorescence staining): ≥ 24 h | number of pSmad2/3-positive cells (immunofluorescence) [2]: significantly reduced | 7-day survival (wild-type mice; 50 μg/kg, one intraperitoneal injection per week, n=6): no mice death; also recorded: survived for 7 days | 7-day survival (wild-type mice; 100 μg/kg, one intraperitoneal injection per week, n=6): no mice death; also recorded: survived for 7 days | 7-day survival (wild-type mice; 1 mg/kg, one intraperitoneal injection per week, n=6): no mice death; also recorded: survived for 7 days | mice that died in 7 days (of 6) (wild-type mice; 5 mg/kg, one intraperitoneal injection per week): 2 | 7-day survival (wild-type mice; 10 mg/kg, one intraperitoneal injection per week): all died in 3 days | safe dose (wild-type mice; intraperitoneal administration, wild-type mice): below 5 mg/kg per week | cortical bone parameters compared with Littermate group (CED mice [3]; 100 μg/kg per week, 8 weeks): no significant difference | total BV/TV (CED mice [3]; 100 μg/kg per week, 8 weeks): no significant difference | bone morphology of tibia (μCT three-dimensional reconstruction) (CED mice [3]; 100 μg/kg per week, 8 weeks, compared with CED and ALN-treated mice): significantly improved | total BV/TV distribution (CED mice [3]; 100 μg/kg per week, 8 weeks, tibia cross-sections): restored | bone parameters (CED mice [3]; 2-month treatment): restored bone parameters | side effects (CED mice [3]; CED mice): no obvious side effects | bone fracture incidence (CED mice [3]; CED mice): 8.3% | dose that effectively attenuated CED progression (CED mice [3]; CED mice, intraperitoneal): 100 μg/kg per week | pSmad2/3 positive cells in tibia (TGF-β1 signaling pathway): significantly decreased | bone remodeling of CED mice (CED mice [4]; 2-month treatment): restored normal bone remodeling | CD31+Emcn+ vessel surfaces (immunofluorescence) (CED mice [4]; 8-week treatment): rescued abnormal vessel formation | number of TRAP+ cells (CED mice [4]; 8-week treatment, diaphysis): decreased | number of Ocn+ cells (CED mice [4]; 8-week treatment, diaphysis, TRAP and Ocn co-staining): decreased | level of TGF-β1 (CED mice [4]; CED mice): decreased | number and distribution of Osx+, Col1α+, and Ocn+ cells (CED mice [4]; CED mice): rescued | type H vessels (CED mice [4]; CED mice): significantly decreased | number of Col1+ cells compared with Littermate group (CED mice [4]): no significant difference | number of Ocn+ cells compared with Littermate group (CED mice [4]): no significant difference | number of Osx+ cells compared with Littermate group (CED mice [4]): no significant difference | LepR+pSmad2/3+ dual positive BMSC (immunofluorescence) (CED mice [4]): significantly decreased | CD31+Emcn+ double positive cells (FACS of tibia bone marrow) (CED mice [5]): significantly reduced | number of LepR+ cells in bone marrow (FACS) (CED mice [5]; listed as conjugate): significantly decreased | HE staining and pSmad2/3 staining of heart, liver, lung, and kidney [6]: normal tissue structures and TGF-β1 activation; also recorded: does not affect other organs | TGF-β1 signaling in tibias (pSmad2/3 staining) [7]: significantly reduced; also recorded: inhibited in a time-dependent manner

Fc1ccc(Cl)cc1-c1nc(Nc2ccncc2)c2nccnc2n1 [SD-208]
bone metastasis in mice (bone metastasis): effective in treating mice with bone metastases

NCCCC(O)(P(=O)(O)O)P(=O)(O)O [ALN, 4-amino-1-hydroxybutylidene-1,1-bisphosphonic acid monosodium trihydrate, reference compound]
bone porosity rate (CED mice [3]; 100 μg/kg per week, 8 weeks): significantly increased | cortical bone thickness (CED mice [3]; 100 μg/kg per week, 8 weeks): significantly increased | total cortical bone volume (CED mice [3]; 100 μg/kg per week, 8 weeks): decreased | total BV/TV (CED mice [3]; 100 μg/kg per week, 8 weeks): no significant difference | bone fracture incidence (CED mice [3]; CED mice): 50% | CD31+Emcn+ vessel surfaces (immunofluorescence) (CED mice [4]; 8-week treatment): highly increased | bone formation in diaphysis bone marrow (HE staining) (CED mice [4]; 8-week treatment, compared with Conjugate and Littermate group): aberrant bone formation was found | number of Col1+ cells compared with Littermate group (CED mice [4]): significantly increased | number of Ocn+ cells compared with Littermate group (CED mice [4]): significantly increased | number of Osx+ cells compared with Littermate group (CED mice [4]): significantly increased | LepR+pSmad2/3+ dual positive BMSC (immunofluorescence) (CED mice [4]): significantly increased | CD31+Emcn+ double positive cells (FACS of tibia bone marrow) (CED mice [5]): highly increased | number of LepR+ cells in bone marrow (FACS) (CED mice [5]): significantly increased | time to reach bone [8]: less than 2 hours | fraction that reaches bone ([8]; the rest is excreted in urine): 50-70%

OCCOc1ccc2c(-c3c(-c4ccccn4)nn4c3CCC4)ccnc2c1 [Compound S-3, reference compound]
TGF-β1 signaling in tibias (pSmad2/3 staining) [7]: did not inhibit TGF-β1 signaling; also recorded: did not show significant differences

Cc1cccc(-c2[nH]c(C(C)(C)C)nc2-c2ccc3c(c2)OCO3)n1 [SB505124]
bone remodeling defects in CED mice (CED mice [9]): rescued bone remodeling defects
